Experimental data reported in PubChem BioAssay (NCI).
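Five compound concentrations were applied to cells in 96-well plates for 48 hours; endpoints were derived by simple linear interpolation of the resulting dose-response curve. At the TGI there is no net growth.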

Experiments:
Assay in all cases: DTP human tumour cell line panel, 48 h
[1] = tested on: MCF7 breast
[2] = tested on: NCI-H522 lung
[3] = tested on: SNB-19 CNS
[4] = tested on: SK-OV-3 ovarian
[5] = tested on: PC-3 prostate
[6] = tested on: SF-268 CNS
[7] = tested on: CAKI-1 renal
[8] = tested on: 786-0 renal
[9] = tested on: MOLT-4 leukemia
[10] = tested on: A498 renal
[11] = tested on: MALME-3M melanoma
[12] = tested on: SN12C renal
[13] = tested on: UO-31 renal
[14] = tested on: HL-60(TB) leukemia
[15] = tested on: SNB-75 CNS
[16] = tested on: NCI-H460 lung
[17] = tested on: DU-145 prostate
[18] = tested on: T-47D breast
[19] = tested on: OVCAR-8 ovarian
[20] = tested on: M14 melanoma
[21] = tested on: SR leukemia
[22] = tested on: MDA-N
[23] = tested on: U251 CNS
[24] = tested on: RPMI-8226 leukemia
[25] = tested on: SW-620 colon
[26] = tested on: BT-549 breast
[27] = tested on: A549 NSCLC
[28] = tested on: OVCAR-4 ovarian
[29] = tested on: OVCAR-5 ovarian
[30] = tested on: LOX IMVI melanoma
[31] = tested on: HT29 colon
[32] = tested on: COLO 205 colon
[33] = tested on: HOP-92 NSCLC
[34] = tested on: NCI-H23 lung
[35] = tested on: K-562 leukemia
[36] = tested on: UACC-257 melanoma
[37] = tested on: KM12 colon
[38] = tested on: NCI/ADR-RES ovarian
[39] = tested on: ACHN renal
[40] = tested on: SF-295 CNS
[41] = tested on: OVCAR-3 ovarian
[42] = tested on: IGROV1 ovarian
[43] = tested on: UACC-62 melanoma
[44] = tested on: HOP-62 NSCLC
[45] = tested on: HCT-15 colon
[46] = tested on: CCRF-CEM leukemia
[47] = tested on: SK-MEL-2 melanoma
[48] = tested on: TK-10 renal
[49] = tested on: RXF 393 renal
[50] = tested on: HS 578T breast
[51] = tested on: SF-539 CNS
[52] = tested on: HCC-2998 colon
[53] = tested on: SK-MEL-5 melanoma
[54] = tested on: SK-MEL-28 melanoma
[55] = tested on: EKVX NSCLC
[56] = tested on: MDA-MB-435
[57] = tested on: HCT-116 colon
[58] = tested on: MDA-MB-231 breast
[59] = tested on: NCI-H226 lung

Compound: CC(C)(C)c1ccc(-c2nc3ccccc3c(=O)o2)cc1
- TGI [1]: 62.2 µM
- TGI [2]: 69.6 µM
- TGI [3]: > 100 µM
- TGI [4]: > 100 µM
- TGI [5]: > 100 µM
- TGI [6]: > 100 µM
- TGI [7]: > 100 µM
- TGI [8]: > 100 µM
- TGI [9]: 47.8 µM
- TGI [10]: > 100 µM
- TGI [11]: > 100 µM
- TGI [12]: > 100 µM
- TGI [13]: > 100 µM
- TGI [14]: 48.8 µM
- TGI [15]: 95.2 µM
- TGI [16]: > 100 µM
- TGI [17]: > 100 µM
- TGI [18]: > 100 µM
- TGI [19]: > 100 µM
- TGI [20]: > 100 µM
- TGI [21]: 54.2 µM
- TGI [22]: > 100 µM
- TGI [23]: > 100 µM
- TGI [24]: 93.3 µM
- TGI [25]: > 100 µM
- TGI [26]: 91 µM
- TGI [27]: 86.6 µM
- TGI [28]: > 100 µM
- TGI [29]: > 100 µM
- TGI [30]: 37.4 µM
- TGI [31]: > 100 µM
- TGI [32]: 78.7 µM
- TGI [33]: > 100 µM
- TGI [34]: > 100 µM
- TGI [35]: > 100 µM
- TGI [36]: > 100 µM
- TGI [37]: > 100 µM
- TGI [38]: > 100 µM
- TGI [39]: > 100 µM
- TGI [40]: > 100 µM
- TGI [41]: 62.1 µM
- TGI [42]: > 100 µM
- TGI [43]: > 100 µM
- TGI [44]: > 100000 nM
- TGI [45]: > 100 µM
- TGI [46]: 44.2 µM
- TGI [47]: 66.6 µM
- TGI [48]: > 100 µM
- TGI [49]: > 100 µM
- TGI [50]: > 100 µM
- TGI [51]: > 100 µM
- TGI [52]: 85.5 µM
- TGI [53]: 38.2 µM
- TGI [54]: > 100 µM
- TGI [55]: > 100 µM
- TGI [56]: > 100 µM
- TGI [57]: > 100 µM

Compound: O=C1C=C(c2c(-c3ccccc3)[nH]c3ccccc23)C(=O)N1c1ccccc1
- TGI [58]: 25.6 µM
- TGI [3]: 66.1 µM
- TGI [4]: > 100 µM
- TGI [5]: 21.8 µM
- TGI [6]: 21.5 µM
- TGI [7]: 25.7 µM
- TGI [8]: 21.1 µM
- TGI [9]: > 100 µM
- TGI [10]: 23.1 µM
- TGI [11]: 23.9 µM
- TGI [12]: 22.5 µM
- TGI [13]: 28.9 µM
- TGI [14]: 24.1 µM
- TGI [16]: 35.3 µM
- TGI [17]: 15.7 µM
- TGI [19]: 20.8 µM
- TGI [20]: 30.4 µM
- TGI [22]: 15.7 µM
- TGI [23]: 26.8 µM
- TGI [24]: > 100 µM
- TGI [25]: 18.4 µM
- TGI [26]: 24.1 µM
- TGI [27]: 46.4 µM
- TGI [29]: 33.3 µM
- TGI [30]: 24 µM
- TGI [31]: 29.7 µM
- TGI [32]: 24.5 µM
- TGI [33]: 30.6 µM
- TGI [34]: 38.6 µM
- TGI [35]: 29.9 µM
- TGI [36]: 30.6 µM
- TGI [38]: 66.2 µM
- TGI [39]: 71.4 µM
- TGI [40]: 25.3 µM
- TGI [41]: 15.8 µM
- TGI [42]: 51.4 µM
- TGI [43]: 27.9 µM
- TGI [44]: 1060 nM
- TGI [45]: 23.8 µM
- TGI [46]: 49.4 µM
- TGI [47]: 28.4 µM
- TGI [48]: 30.3 µM
- TGI [49]: 15.2 µM
- TGI [59]: 68.5 µM
- TGI [50]: 52.8 µM
- TGI [51]: 39.2 µM
- TGI [52]: 20.8 µM
- TGI [53]: 20.9 µM
- TGI [54]: 68.7 µM
- TGI [55]: 38.5 µM
- TGI [56]: 24.6 µM
- TGI [57]: 19.6 µM
